Data as given in patent US11319322B2, “Substituted aryl ether compound, preparation method thereof, pharmaceutical composition and use thereof” (Xiamen University, priority 2017, dated 2022).

Experiments:
Format in all cases: cell-based
[1] = target: T1, CCDC6-RET-BaF3 (Homo sapiens, UniProt P07949); assay: Growth inhibition of CCDC6-RET-BaF3 cells stably transfected with kinase (MTS); settings: 48 h, read-out: CCDC6-RET (IC50/nM)
T1 construct: fused on or other part: Q16204 (Coiled-coil domain-containing protein 6)
T1 sequence (P07949 whole entry, change not shown, the tested form may be a part): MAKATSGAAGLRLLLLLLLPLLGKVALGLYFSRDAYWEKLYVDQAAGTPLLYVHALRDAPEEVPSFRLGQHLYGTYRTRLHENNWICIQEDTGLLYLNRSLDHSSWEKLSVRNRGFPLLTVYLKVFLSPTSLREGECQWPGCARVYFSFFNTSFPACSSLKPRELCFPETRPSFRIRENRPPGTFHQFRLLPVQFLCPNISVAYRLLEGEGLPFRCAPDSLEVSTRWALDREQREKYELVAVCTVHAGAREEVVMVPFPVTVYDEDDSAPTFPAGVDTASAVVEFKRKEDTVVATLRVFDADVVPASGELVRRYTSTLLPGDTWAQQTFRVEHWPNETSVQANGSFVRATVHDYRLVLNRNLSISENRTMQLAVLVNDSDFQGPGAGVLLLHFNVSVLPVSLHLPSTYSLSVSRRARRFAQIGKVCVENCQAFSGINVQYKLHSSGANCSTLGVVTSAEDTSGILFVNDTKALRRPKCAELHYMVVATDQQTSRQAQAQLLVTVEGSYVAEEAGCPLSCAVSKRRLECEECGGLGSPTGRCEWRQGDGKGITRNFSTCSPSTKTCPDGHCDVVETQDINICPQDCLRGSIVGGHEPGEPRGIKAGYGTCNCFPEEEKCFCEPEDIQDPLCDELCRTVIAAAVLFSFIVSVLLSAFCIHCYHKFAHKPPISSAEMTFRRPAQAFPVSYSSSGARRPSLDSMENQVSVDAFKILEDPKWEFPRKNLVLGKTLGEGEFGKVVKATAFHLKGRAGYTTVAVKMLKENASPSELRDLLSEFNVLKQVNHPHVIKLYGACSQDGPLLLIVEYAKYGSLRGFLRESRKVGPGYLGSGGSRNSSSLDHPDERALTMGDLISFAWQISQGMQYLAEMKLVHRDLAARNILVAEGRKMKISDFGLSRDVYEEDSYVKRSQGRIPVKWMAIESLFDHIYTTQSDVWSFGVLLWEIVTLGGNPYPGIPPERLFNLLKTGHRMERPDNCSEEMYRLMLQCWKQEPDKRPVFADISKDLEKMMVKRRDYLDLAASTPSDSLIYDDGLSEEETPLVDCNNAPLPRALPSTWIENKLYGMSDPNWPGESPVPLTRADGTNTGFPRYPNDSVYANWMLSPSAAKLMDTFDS
Summary of the method: (§1)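 BaF3 cells stably expressing CCDC6-RET or KIF5B-RET, or parental BaF3, 2×10^4 cells/well, treated 48 h at 37 °C with 8-point 1:3 dilutions from 10 μM (0.1% DMSO). MTS/PES added 1–4 h, OD490 read; inhibition versus DMSO and blank gave IC50.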

[2] = test system: wild-type BaF3; assay: Growth inhibition of wild-type BaF3 cells, broad-spectrum toxicity (MTS); settings: Mus musculus, 48 h, read-out: WT Ba/F3 (IC50/nM)
Method: Growth inhibitory activity of compounds on cell lines stably transfected with kinase
The activity of compounds against kinase RET is evaluated by their effect of inhibiting growth of cell lines stably transfected with kinase CCDC6-RET-BaF3, KIF5B-RET-BaF3, and wild-type BaF3 (Proc. Natl. Acad. Sci. USA., 2006, 103, 3153-8.). The growth of the cell lines stably transfected with kinase CCDC6-RET-BaF3, KIF5B-RET-BaF3 depends on their kinase activity. If a compound can inhibit the activity of the kinase RET per se or the activity of the RET signaling pathway, the compound can inhibit the growth of BaF3 cells stably transfected with kinase. […] Therefore, a larger ratio between IC50 of a compound to wild-type BaF3 and IC50 of the compound to the cell lines stably transfected with kinase CCDC6-RET-BaF3, KIF5B-RET-BaF3 indicates better targeting.
The specific test method is given as follows:
1) Medium: DMEM (Dulbecco's modified eagle medium) or RPMI 1640 (containing 10% fetal bovine serum, 100 μg/mL ampicillin, 100 μg/mL streptomycin).
2) Reagents: MTS reaction solution (containing 2 mg/mL of MTS [3-(4,5-dimethylthiazol-2-yl)-5-(3-carboxymethoxyphenyl)-2-(4-sulfophenyl)-2H-tetrazolium, inner Salt]; 100 μg/mL PES (phenazine […])).
3) Compound test: cells stably transfected with kinase (CCDC6-RET-BaF3, KIF5B-RET-BaF3) or wild-type BaF3 cells (2×10^4 cells/well) were incubated into a 96-well culture plate, the volume of cell culture fluid was 90 μL, and then 10 μL of the compound at each gradient concentration was added (the highest concentration was 10 μM, which was diluted stepwise by ⅓, and 8 concentration points were set in total; the system contained 0.1% DMSO (dimethyl sulfoxide)). The cell plate with uniformly mixed compound was cultured in a cell culture incubator (37° C.; 5% CO2) for 48 h, then 20 μL of MTS reaction solution was added, uniformly mixed and incubated in the cell culture incubator (37° C.; 5% CO2) for 1-4 hr, OD values at 490 nm were measured by a microplate reader (VARIOSKAN FLASH, Thermo). Three parallels were set in each group of experiments, with 0.1% (a final concentration) DMSO as a negative control, and a medium without cells or compounds as a blank control. The cell growth inhibition rate was calculated by the following formula: Cell growth inhibition rate %=1−(ODexperimental group−ODblank group)/(ODnegative group−ODblank group)×100%
4) IC50 calculation: The semi-inhibitory concentration of the compound acting on cell growth was calculated using GradPad Prism 5 software according to the measured cell growth inhibition rate.

[3] = target: T2, KIF5B-RET-BaF3 (Homo sapiens, UniProt P07949); assay: Growth inhibition of KIF5B-RET-BaF3 cells stably transfected with kinase (MTS); settings: 48 h, read-out: KIF5B-RET (IC50/nM)
T2 construct: fused on or other part: P33176 (Kinesin-1 heavy chain)
T2 sequence (P07949 whole entry, change not shown, the tested form may be a part): as above
Summary of the method: as §1

SMILES: CN1CCN(Cc2ccc(C(=O)Nc3cc(Oc4nc(-c5ccc(N)cc5)nc5cc[nH]c45)ccc3Cl)cc2C(F)(F)F)CC1 [III-k-11]
- GI50 [1]: 451 nM
- IC50 [2]: 1290 nM
- GI50 [3]: 496 nM

SMILES: Cc1ccc(C(=O)Nc2ccc(CN3CCN(C)CC3)c(C(F)(F)F)c2)cc1Oc1nc(-c2ccc(O)cc2)nc2cc[nH]c12 [III-m-26]
- GI50 [1]: 1320 nM
- IC50 [2]: 4100 nM
- GI50 [3]: 2900 nM

SMILES: CN1CCN(Cc2ccc(NC(=O)c3cccc(Oc4cc(-c5cccnc5)nc5c4ccn5C)c3)cc2C(F)(F)F)CC1 [V-I-3]
- GI50 [1]: 587 nM
- IC50 [2]: 1240 nM
- GI50 [3]: 595 nM

SMILES: Cc1ccc(Oc2nc(-c3ccccc3)nc3c2ncn3C)cc1NC(=O)c1ccc(CN2CCN(C)CC2)c(C(F)(F)F)c1 [I-j-2]
- GI50 [1]: 2130 nM
- IC50 [2]: 2110 nM
- GI50 [3]: 1580 nM

SMILES: Cc1ccc(Oc2nc(-c3ccncc3)nc3ccsc23)cc1NC(=O)c1ccc(CN2CCN(C)CC2)c(C(F)(F)F)c1 [VI-j-2]
- GI50 [1]: 3.08 nM
- IC50 [2]: 3940 nM
- GI50 [3]: 17 nM

SMILES: CN1CCN(Cc2ccc(C(=O)Nc3cc(Oc4nc(-c5ccccc5)nc5cc[nH]c45)ccc3Cl)cc2C(F)(F)F)CC1 [III-k-17]
- GI50 [1]: 1410 nM
- IC50 [2]: 2630 nM
- GI50 [3]: 2610 nM

SMILES: Cc1ccc(Oc2nc(-c3ccncc3)nc3[nH]ncc23)cc1NC(=O)c1ccc(CN2CCN(C)CC2)c(C(F)(F)F)c1 [II-j-6]
- GI50 [1]: 7.96 nM
- IC50 [2]: 4230 nM
- GI50 [3]: 44.2 nM

SMILES: Cc1ccc(Oc2nc(-c3cccnc3)nc3c2ncn3C)cc1C(=O)Nc1ccc(CN2CCN(C)CC2)c(C(F)(F)F)c1 [I-n-2]
- GI50 [1]: 3210 nM
- IC50 [2]: 1610 nM
- GI50 [3]: 3640 nM

SMILES: Cc1ccc(C(=O)Nc2ccc(CN3CCN(C)CC3)c(C(F)(F)F)c2)cc1Oc1nc(-c2ccoc2)nc2cc[nH]c12 [III-m-8]
- GI50 [1]: 1240 nM
- IC50 [2]: 4100 nM
- GI50 [3]: 1710 nM

SMILES: Cc1ccc(C(=O)Nc2ccc(CN3CCN(C)CC3)c(C(F)(F)F)c2)cc1Oc1nc(-c2ccncc2)nc2[nH]ncc12 [II-m-21]
- GI50 [1]: 73.4 nM
- IC50 [2]: 4780 nM
- GI50 [3]: 240 nM

SMILES: CN1CCN(Cc2ccc(C(=O)Nc3cc(Oc4nc(-c5ccncc5)nc5ccn(C)c45)ccc3Cl)cc2C(F)(F)F)CC1 [III-k-4]
- GI50 [1]: 11.2 nM
- IC50 [2]: 1620 nM
- GI50 [3]: 70.7 nM

SMILES: CN1CCN(Cc2cc(NC(=O)c3cccc(Oc4nc(-c5ccncc5)nc5ccn(C)c45)c3)cc(C(F)(F)F)c2)CC1 [III-p-4]
- GI50 [1]: 3230 nM
- IC50 [2]: > 10000 nM
- GI50 [3]: 3650 nM

SMILES: CN1CCN(Cc2ccc(C(=O)Nc3cccc(Oc4nc(-c5ccncc5)nc5ccsc45)c3)cc2C(F)(F)F)CC1 [VI-h-2]
- GI50 [1]: 561 nM
- IC50 [2]: 3900 nM
- GI50 [3]: 493 nM

SMILES: Cc1ccc(Oc2nc(-c3cccnc3)nc3[nH]ncc23)cc1NC(=O)c1ccc(CN2CCN(C)CC2)c(C(F)(F)F)c1 [II-j-5]
- GI50 [1]: 2370 nM
- IC50 [2]: 7400 nM
- GI50 [3]: 3890 nM

SMILES: Cc1ccc(C(=O)Nc2ccc(CN3CCN(C)CC3)c(C(F)(F)F)c2)cc1Oc1cc(-c2ccncc2)nc2c1ccn2C [V-m-4]
- GI50 [1]: 1240 nM
- IC50 [2]: 1420 nM
- GI50 [3]: 811 nM

SMILES: Cc1ccc(C(=O)Nc2ccc(CN3CCN(C)CC3)c(C(F)(F)F)c2)cc1Oc1nc(-c2cccc(Cl)c2)nc2ccn(C)c12 [III-m-13]
- GI50 [1]: 3510 nM
- IC50 [2]: 3390 nM
- GI50 [3]: 3000 nM

SMILES: CN1CCN(Cc2ccc(NC(=O)c3cc(Oc4nc(-c5ccncc5)nc5cc[nH]c45)ccc3Cl)cc2C(F)(F)F)CC1 [III-o-2]
- GI50 [1]: 17.4 nM
- IC50 [2]: 1290 nM
- GI50 [3]: 13.4 nM

SMILES: Cc1ccc(Oc2nc(-c3ccncc3)nc3cc[nH]c23)cc1C(=O)Nc1cc(CN2CCN(C)CC2)cc(C(F)(F)F)c1 [III-r-2]
- GI50 [1]: 386 nM
- IC50 [2]: 4130 nM
- GI50 [3]: 535 nM

SMILES: Cc1ccc(Oc2nc(-c3ccccc3)nc3cc[nH]c23)cc1NC(=O)c1ccc(CN2CCN(C)CC2)c(C(F)(F)F)c1 [III-j-3]
- GI50 [1]: 2480 nM
- IC50 [2]: 3780 nM
- GI50 [3]: 2350 nM

SMILES: CN1CCN(Cc2cc(NC(=O)c3cccc(Oc4nc(-c5cccnc5)nc5cc[nH]c45)c3)cc(C(F)(F)F)c2)CC1 [III-p-1]
- GI50 [1]: 4400 nM
- IC50 [2]: 3550 nM
- GI50 [3]: 2920 nM

SMILES: CN1CCN(Cc2ccc(NC(=O)c3cc(Oc4nc(-c5cccnc5)nc5ccsc45)ccc3Cl)cc2C(F)(F)F)CC1 [VI-o-1]
- GI50 [1]: 2170 nM
- IC50 [2]: 3990 nM
- GI50 [3]: 2870 nM

SMILES: Cc1ccc(C(=O)Nc2ccc(CN3CCN(C)CC3)c(C(F)(F)F)c2)cc1Oc1cc(-c2cccnc2)nc2[nH]ccc12 [V-m-1]
- GI50 [1]: 1020 nM
- IC50 [2]: 1380 nM
- GI50 [3]: 473 nM

SMILES: Cc1ccc(C(=O)Nc2ccc(CN3CCN(C)CC3)c(C(F)(F)F)c2)cc1Oc1nc(N2CC(C)OC(C)C2)nc2ccn(C)c12 (stereo not drawn) [III-m-21]
- GI50 [1]: 3490 nM
- IC50 [2]: 2920 nM
- GI50 [3]: 3750 nM

SMILES: CN1CCN(Cc2ccc(C(=O)Nc3cc(Oc4nc(-c5cccnc5)nc5[nH]ncc45)ccc3Cl)cc2C(F)(F)F)CC1 [II-k-3]
- GI50 [1]: 567 nM
- IC50 [2]: 1340 nM
- GI50 [3]: 1350 nM

SMILES: Cc1ccc(C(=O)Nc2ccc(CN3CCN(C)CC3)c(C(F)(F)F)c2)cc1Oc1nc(-c2ccsc2)nc2ccn(C)c12 [III-m-18]
- GI50 [1]: 2960 nM
- IC50 [2]: 3510 nM
- GI50 [3]: 2680 nM

SMILES: CN1CCN(Cc2ccc(NC(=O)c3cccc(Oc4nc(-c5ccncc5)nc5c4ncn5C)c3)cc2C(F)(F)F)CC1 [I-l-3]
- GI50 [1]: 25.2 nM
- IC50 [2]: > 10000 nM
- GI50 [3]: 5.88 nM

SMILES: Cc1ccc(C(=O)Nc2ccc(CN3CCN(C)CC3)c(C(F)(F)F)c2)cc1Oc1nc(-c2cccc(Cl)c2)nc2cc[nH]c12 [III-m-5]
- GI50 [1]: 3760 nM
- IC50 [2]: 3920 nM
- GI50 [3]: 4040 nM

SMILES: CN1CCN(Cc2ccc(NC(=O)c3cccc(Oc4cc(-c5ccncc5)nc5[nH]ccc45)c3)cc2C(F)(F)F)CC1 [V-I-2]
- GI50 [1]: 169 nM
- IC50 [2]: 3400 nM
- GI50 [3]: 169 nM

SMILES: Cc1ccc(C(=O)Nc2ccc(CN3CCN(C)CC3)c(C(F)(F)F)c2)cc1Oc1nc(-c2ccsc2)nc2cc[nH]c12 [III-m-27]
- GI50 [1]: 1400 nM
- IC50 [2]: 34500 nM
- GI50 [3]: 1500 nM

SMILES: Cc1ccc(C(=O)Nc2ccc(CN3CCN(C)CC3)c(C(F)(F)F)c2)cc1Oc1nc(-c2cccnc2)nc2[nH]ncc12 [II-m-20]
- GI50 [1]: 10.6 nM
- IC50 [2]: > 10000 nM
- GI50 [3]: 74.3 nM

SMILES: Cc1ccc(C(=O)Nc2ccc(CN3CCN(C)CC3)c(C(F)(F)F)c2)cc1Oc1nc(N2CCOCC2)nc2ccn(C)c12 [III-m-20]
- GI50 [1]: 2960 nM
- IC50 [2]: 3550 nM
- GI50 [3]: 2500 nM

SMILES: Cn1cnc2c(Oc3cccc(C(=O)Nc4cccc(C(F)(F)F)c4)c3)nc(-c3ccncc3)nc21 [I-d-2]
- GI50 [1]: 1540 nM
- IC50 [2]: > 10000 nM
- GI50 [3]: 5710 nM
